A value given as a limit tells only on which side of the number the result lay.

This assay has as its target T1, human DP2 receptor (Homo sapiens, UniProt Q9Y5Y4).
T1 construct: expressed in transfected cells; membrane preparation
T1 sequence (Q9Y5Y4 1-395): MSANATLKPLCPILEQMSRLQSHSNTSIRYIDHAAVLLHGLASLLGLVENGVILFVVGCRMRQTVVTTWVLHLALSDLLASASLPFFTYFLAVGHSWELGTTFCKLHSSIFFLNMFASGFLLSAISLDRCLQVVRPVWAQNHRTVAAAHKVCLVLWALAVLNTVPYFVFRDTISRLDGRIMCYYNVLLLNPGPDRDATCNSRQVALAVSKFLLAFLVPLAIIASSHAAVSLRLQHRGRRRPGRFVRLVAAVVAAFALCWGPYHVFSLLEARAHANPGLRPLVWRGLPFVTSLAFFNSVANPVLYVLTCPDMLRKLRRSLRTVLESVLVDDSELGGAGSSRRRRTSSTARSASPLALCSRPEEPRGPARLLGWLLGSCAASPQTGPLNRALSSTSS
As to the kind of experiment: DP2/CRTH2 radioligand binding assay using [3H]PGD2. The note with it: hDP2 (CRTH2) binding assay; membranes of HEK293 cells expressing recombinant human DP2, 1 nM [3H]PGD2. As to the method:
The ability of a compound to bind to the human DP2 receptor is assessed via a radioligand binding assay using [^3H]PGD2. HEK293 cells stably expressing recombinant human DP2 are resuspended in 10 mM Hepes, 7.4 containing 1 mM DTT, lysed and centrifuged at 75,000×g to pellet the membranes. The membranes are resuspended in 10 mM Hepes, 7.4 containing 1 mM DTT and 10% glycerol to approximately 5 mg protein/ml. Membranes (2-10 μg protein/well) are incubated in 96-well plates with 1 nM [^3H]PGD2 and test compound in Assay Buffer (50 mM Hepes, 10 mM MnCl2, 1 mM EDTA, plus or minus 0.2% human serum albumin, pH 7.4) for 60 minutes at room temperature. The reactions are terminated by rapid filtration through Whatman GF/C glass fibre filter plates. The filter plates were pre-soaked in 0.33% polythylenimine for 30 minutes at room temperature then washed in Wash Buffer (50 mM Hepes, 0.5 M NaCl pH 7.4) prior to harvesting. After harvesting, the filter plates are washed 3 times with 1 ml cold Wash Buffer then dried. Scintillant is then added to the plates and the radioactivity retained on the filters is determined on a Packard TopCount (Perkin Elmer). Specific binding is determined as total radioactive binding minus non-specific binding in the presence of 10 μM PGD2. IC50s were determined using GraphPad prism analysis of drug titration curves.
As a reminder, the IC50 is the concentration needed to halve the response being measured. In the case of `COCC(=O)N(Cc1cnc(C)cn1)Cc1cc(C(F)(F)F)ccc1-c1cncc(CC(=O)O)c1` [Compound 1-60, [5-(2-{[N-(2-Methoxy-acetyl)-N-(5-methyl-pyrazin-2-ylmethyl)-amino]-methyl}-4-trifluoromethyl-phenyl)-pyridin-3-yl]-acetic acid], the 50% inhibitory concentration (IC50) fell in the range of 300 to 1000 nM.

Take `CC(=O)N(CCc1ccccc1)Cc1cc(C(F)(F)F)ccc1-c1cncc(CC(=O)O)c1` [Compound 1-27, (5-{2-[(N-Acetyl-N-phenethyl-amino)-methyl]-4-trifluoromethyl-phenyl}-pyridin-3-yl)-acetic acid]: the IC50 was under 300 nM.

Turning to `CCN(Cc1cc(F)ccc1-c1cncc(C(C)C(=O)O)c1)C(=O)OCc1ccccc1` (centres unmarked) [Compound 1-11, 2-(5-{2-[(N-Benzyloxycarbonyl-N-ethyl-amino)-methyl]-4fluoro-phenyl}-pyridin-3-yl)-propionic acid], the IC50 is under 300 nM.

For `CC(=O)N(Cc1ccccn1)Cc1cc(C(F)(F)F)ccc1-c1cncc(CC(=O)O)c1` [Compound 1-53, (5-{2-[(N-Acetyl-N-pyridin-2-ylmethyl-amino)-methyl]-4-trifluoromethyl-phenyl}-pyridin-3-yl)-acetic acid], the half-inhibitory concentration (IC50) is under 300 nM.

For the compound `CCN(Cc1cc(-n2cccn2)ccc1-c1cc(CC(=O)O)cnc1OC)C(=O)C1CC1` [Compound 1-46, (5-{2-[(N-Cyclopropanecarbonyl-N-ethyl-amino)-methyl]-4-pyrazol-1-yl-phenyl}-6-methoxy-pyridin-3-yl)-acetic acid], the 50% inhibitory concentration (IC50) is under 300 nM.

For `CCNCc1cc(C(F)(F)F)ccc1-c1cncc(CC(=O)O)c1` [Compound 1-78, [5-(2-Ethylaminomethyl-4-trifluoromethyl-phenyl)-pyridin-3-yl]-acetic acid], the half-maximal inhibitory concentration (IC50) is over 1000 nM.

As to `CC(=O)N(Cc1cnc(C)cn1)Cc1cc(C(F)(F)F)ccc1-c1cncc(CC(=O)O)c1` [Compound 1-61, [5-(2-{[N-Acetyl-N-(5-methyl-pyrazin-2-ylmethyl)-amino]-methyl}-4-trifluoromethyl-phenyl)-pyridin-3-yl]-acetic acid], the IC50 is under 300 nM.

For the compound `CCN(Cc1cc(F)ccc1-c1cncc(C(C)C(=O)O)c1)C(=O)NCc1ccccc1` (centres unmarked) [Compound 1-12, 2-{5-[2-(3-Benzyl-1-ethyl-ureidomethyl)-4fluoro-phenyl]-pyridin-3-yl}-propionic acid], the IC50 fell in the range of 300 to 1000 nM.

As for `CCN(Cc1cc(C(F)(F)F)ccc1-c1cc(CC(=O)O)ccn1)C(=O)C1CCC1` [Compound 1-36, (2-{2-[(N-Cyclobutanecarbonyl-N-ethyl-amino)-methyl]-4-trifluoromethyl-phenyl}-pyridin-4-yl)-acetic acid], the IC50 was over 1000 nM.

Regarding `CCN(Cc1cc(C(F)(F)F)ccc1-c1cncc(CC(=O)O)c1)S(=O)(=O)c1cccc2c(N(C)C)cccc12` [Compound 1-77, [5-(2-{[N-(5-Dimethylamino-naphthalene-1-sulfonyl)-N-ethyl-amino]-methyl}-4-trifluoromethyl-phenyl)-pyridin-3-yl]-acetic acid], the IC50 is under 300 nM.

For the compound `CCN(Cc1cc(C(F)(F)F)ccc1-c1cc(CC(=O)O)cnc1OCC1CC1)C(=O)C1CC1` [Compound 1-69, (5-{2-[(N-Cyclopropanecarbonyl-N-ethyl-amino)-methyl]-4-trifluoromethyl-phenyl}-6-cyclopropylmethoxy-pyridin-3-yl)-acetic acid], the IC50 was under 300 nM.

On to `O=C(O)Cc1cncc(-c2ccc(C(=O)N3CCCC3)cc2CN(Cc2ccccc2)C(=O)C2CC2)c1` [Compound 1-8, {5-[2-[(N-Benzyl-N-cyclopropanecarbonyl-amino)-methyl]-4-(pyrrolidine-1-carbonyl)-phenyl]-pyridin-3-yl}-acetic acid], for which the concentration for half-maximal inhibition (IC50) was 300 to 1000 nM.

`CCN(Cc1cc(C(F)(F)F)ccc1-c1cc(CC(=O)O)cnc1OCc1csc(C)n1)C(=O)C1CC1` [Compound 1-70, [5-{2-[(N-Cyclopropanecarbonyl-N-ethyl-amino)-methyl]-4-trifluoromethyl-phenyl}-6-(2-methyl-thiazol-4-ylmethoxy)-pyridin-3-yl]-acetic acid]: the IC50 is under 300 nM.

For `Cc1nn(CC(=O)O)c(C)c1-c1ccc(C(F)(F)F)cc1CN(Cc1ccccc1)C(=O)C1CC1` [Compound 3-3, (4-{2-[(N-Benzyl-N-cyclopropanecarbonyl-amino)-methyl]-4-trifluoromethyl-phenyl}-3,5-dimethyl-pyrazol-1-yl)-acetic acid], the 50% inhibitory concentration (IC50) was under 300 nM.

For `CCN(Cc1cc(C(F)(F)F)ccc1-c1cccc(CC(=O)O)n1)C(=O)OC(C)(C)C` [Compound 1-38, (6-{2-[(N-tert-Butoxycarbonyl-N-ethyl-amino)-methyl]-4-trifluoromethyl-phenyl}-pyridin-2-yl)-acetic acid], the IC50 was over 1000 nM.

On to `O=C(O)Cc1cncc(-c2ccc(C(F)(F)F)cc2CN(CCc2ccccn2)C(=O)C2CC2)c1` [Compound 1-64, [5-(2-{[N-Cyclopropanecarbonyl-N-(2-pyridin-2-yl-ethyl)-amino]-methyl}-4-trifluoromethyl-phenyl)-pyridin-3-yl]-acetic acid], for which the half-maximal inhibitory concentration (IC50) was over 1000 nM.

As for `O=C(O)Cc1cncc(-c2ccc(C(F)(F)F)cc2CN(CCc2ccccc2)C(=O)C2CC2)c1` [Compound 1-26, (5-{2-[(N-Cyclopropanecarbonyl-N-phenethyl-amino)-methyl]-4-trifluoromethyl-phenyl}-pyridin-3-yl)-acetic acid], the IC50 was under 300 nM.

Values taken from US20110312974A1, “HETEROARYL ANTAGONISTS OF PROSTAGLANDIN D2 RECEPTORS” (AMIRA PHARMACEUTICALS, INC., priority 2008, published 2011).
